The assay has as its system MCH receptors. Description: MCH receptor activity class (method not given). The settings on record: class by percent of control at 10^-7 M or IC50.

The structures appear in SMILES notation.

30 molecules from US20050197350A1, “Novel quinoline, tetrahydroquinazoline, and pyrimidine derivatives and methods of treatment related to the use thereof” (TAISHO PHARMACEUTICAL CO., LTD., priority 2003, published 2005) can be followed below.

With `Cc1oc(-c2ccccc2)cc1CNC[C@H]1CC[C@@H](Nc2nccc(N(C)C)n2)CC1` [compound 1313], the class was 3 (Class 3 The value of percent of control at 10^−7 M was more than 60% or the value of IC50 was more than 200 nM.). Then `COc1ccc(CNC[C@H]2CC[C@@H](Nc3nccc(N(C)C)n3)CC2)cc1OC` [compound 1314], with 2 (Class 2: The value of percent of control at 10^−7 M was from 40% to 60% or the value of IC′50 was from 50 nM to 200 nM.); and `Cc1cc(CNC[C@H]2CC[C@@H](Nc3nccc(N(C)C)n3)CC2)ccc1O` [compound 1315], with 3 (Class 3 The value of percent of control at 10^−7 M was more than 60% or the value of IC50 was more than 200 nM.). As for `COc1cc(C)c(CNC[C@H]2CC[C@@H](Nc3nccc(N(C)C)n3)CC2)cc1C` [compound 1316], the figure is 2 (Class 2: The value of percent of control at 10^−7 M was from 40% to 60% or the value of IC′50 was from 50 nM to 200 nM.).

As for `COc1cccc(CNC[C@H]2CC[C@@H](Nc3nccc(N(C)C)n3)CC2)c1O` [compound 1317], the class is listed as 3 (Class 3 The value of percent of control at 10^−7 M was more than 60% or the value of IC50 was more than 200 nM.). Then `CN(C)c1ccnc(N[C@H]2CC[C@@H](CNCc3cc(C(F)(F)F)cc(Cl)c3F)CC2)n1` [compound 1318], with 3 (Class 3 The value of percent of control at 10^−7 M was more than 60% or the value of IC50 was more than 200 nM.); and `CN(C)c1ccnc(N[C@H]2CC[C@@H](CNCc3cc(F)cc(C(F)(F)F)c3)CC2)n1` [compound 1319], with 3 (Class 3 The value of percent of control at 10^−7 M was more than 60% or the value of IC50 was more than 200 nM.).

For `COc1cc(CNC[C@H]2CC[C@@H](Nc3nccc(N(C)C)n3)CC2)cc(F)c1O` [compound 1320], the class is listed as 3 (Class 3 The value of percent of control at 10^−7 M was more than 60% or the value of IC50 was more than 200 nM.). Then `COc1cc(F)c(CNC[C@H]2CC[C@@H](Nc3nccc(N(C)C)n3)CC2)cc1OC` [compound 1321], with 3 (Class 3 The value of percent of control at 10^−7 M was more than 60% or the value of IC50 was more than 200 nM.); and `CCc1ccccc1CNC[C@H]1CC[C@@H](Nc2nccc(N(C)C)n2)CC1` [compound 1322], with 3 (Class 3 The value of percent of control at 10^−7 M was more than 60% or the value of IC50 was more than 200 nM.).

For `CN(C)c1ccnc(N[C@H]2CC[C@@H](CNCc3ccc(N(C)CCC#N)cc3)CC2)n1` [compound 1323], the class is listed as 2 (Class 2: The value of percent of control at 10^−7 M was from 40% to 60% or the value of IC′50 was from 50 nM to 200 nM.). Regarding `CN(C)c1ccnc(N[C@H]2CC[C@@H](CNCc3ccc(OCc4ccc(Br)cc4)cc3)CC2)n1` [compound 1324], the class is reported as 2 (Class 2: The value of percent of control at 10^−7 M was from 40% to 60% or the value of IC′50 was from 50 nM to 200 nM.). As for `CCOc1c(Br)cc(Br)cc1CNC[C@H]1CC[C@@H](Nc2nccc(N(C)C)n2)CC1` [compound 1325], the figure is 2 (Class 2: The value of percent of control at 10^−7 M was from 40% to 60% or the value of IC′50 was from 50 nM to 200 nM.); as for `COc1cccc(OC)c1CN[C@H]1CC[C@@H](Nc2nc3c(c(N(C)C)n2)CCCC3)CC1` [compound 1326], 3 (Class 3 The value of percent of control at 10^−7 M was more than 60% or the value of IC50 was more than 200 nM.); as for `CCOc1ccccc1CN[C@H]1CC[C@@H](Nc2nc3c(c(N(C)C)n2)CCCC3)CC1` [compound 1327], 3 (Class 3 The value of percent of control at 10^−7 M was more than 60% or the value of IC50 was more than 200 nM.). Then `CN(C)c1nc(N[C@H]2CC[C@@H](NCc3c[nH]c4ccccc34)CC2)nc2c1CCCC2` [compound 1328], with 3 (Class 3 The value of percent of control at 10^−7 M was more than 60% or the value of IC50 was more than 200 nM.). As for `COc1ccc(OC)c(CN[C@H]2CC[C@@H](Nc3nc4c(c(N(C)C)n3)CCCC4)CC2)c1` [compound 1329], the class is 3 (Class 3 The value of percent of control at 10^−7 M was more than 60% or the value of IC50 was more than 200 nM.). As for `COc1ccc(CN[C@H]2CC[C@@H](Nc3nc4c(c(N(C)C)n3)CCCC4)CC2)c2ccccc12` [compound 1330], the figure is 3 (Class 3 The value of percent of control at 10^−7 M was more than 60% or the value of IC50 was more than 200 nM.). Then `COc1ccc2[nH]cc(CN[C@H]3CC[C@@H](Nc4nc5c(c(N(C)C)n4)CCCC5)CC3)c2c1` [compound 1331], with 1 (Class 1: The value of percent of control at 10^−7 M was less than 40% or the value of IC50 was less than 50 nM.); and `COc1ccc2ccccc2c1CN[C@H]1CC[C@@H](Nc2nc3c(c(N(C)C)n2)CCCC3)CC1` [compound 1332], with 3 (Class 3 The value of percent of control at 10^−7 M was more than 60% or the value of IC50 was more than 200 nM.); and `COc1cc(Br)cc(CN[C@H]2CC[C@@H](Nc3nc4c(c(N(C)C)n3)CCCC4)CC2)c1O` [compound 1333], with 3 (Class 3 The value of percent of control at 10^−7 M was more than 60% or the value of IC50 was more than 200 nM.). Take `CN(C)c1nc(N[C@H]2CC[C@@H](NCc3c[nH]c4ccc(Br)cc34)CC2)nc2c1CCCC2` [compound 1334]: the class is on record as 3 (Class 3 The value of percent of control at 10^−7 M was more than 60% or the value of IC50 was more than 200 nM.). Then `COc1ccc(CN[C@H]2CC[C@@H](Nc3nc4c(c(N(C)C)n3)CCCC4)CC2)c(OC)c1` [compound 1335], with 3 (Class 3 The value of percent of control at 10^−7 M was more than 60% or the value of IC50 was more than 200 nM.). For `COc1ccc(CN[C@H]2CC[C@@H](Nc3nc4c(c(N(C)C)n3)CCCC4)CC2)c(OC)c1OC` [compound 1336], the class is recorded as 3 (Class 3 The value of percent of control at 10^−7 M was more than 60% or the value of IC50 was more than 200 nM.). `COc1cc(CN[C@H]2CC[C@@H](Nc3nc4c(c(N(C)C)n3)CCCC4)CC2)cc(OC)c1O` [compound 1337]: the class is 2 (Class 2: The value of percent of control at 10^−7 M was from 40% to 60% or the value of IC′50 was from 50 nM to 200 nM.). As for `CCOc1cc(CN[C@H]2CC[C@@H](Nc3nc4c(c(N(C)C)n3)CCCC4)CC2)ccc1OC` [compound 1338], the figure is 3 (Class 3 The value of percent of control at 10^−7 M was more than 60% or the value of IC50 was more than 200 nM.); as for `CN(C)c1nc(N[C@H]2CC[C@@H](NCc3c[nH]nc3-c3ccc(C(F)(F)F)cc3)CC2)nc2c1CCCC2` [compound 1339], 3 (Class 3 The value of percent of control at 10^−7 M was more than 60% or the value of IC50 was more than 200 nM.).

On to `COc1cc(CN[C@H]2CC[C@@H](Nc3nc4c(c(N(C)C)n3)CCCC4)CC2)cc(OC)c1OC` [compound 1340], for which the class is 3 (Class 3 The value of percent of control at 10^−7 M was more than 60% or the value of IC50 was more than 200 nM.). For the molecule `COc1cc(CN[C@H]2CC[C@@H](Nc3nc4c(c(N(C)C)n3)CCCC4)CC2)cc(OC)c1` [compound 1342], the class was 2 (Class 2: The value of percent of control at 10^−7 M was from 40% to 60% or the value of IC′50 was from 50 nM to 200 nM.). As for `COc1cc(CN[C@H]2CC[C@@H](Nc3nc4c(c(N(C)C)n3)CCCC4)CC2)cc(I)c1O` [compound 1343], the figure is 2 (Class 2: The value of percent of control at 10^−7 M was from 40% to 60% or the value of IC′50 was from 50 nM to 200 nM.).
